The SangsterLogP compilation

assay: method code SF-HPLC, from DOI: 10.1021/jm00047a008, PMID: 7932579; conditions: pH 5.0

logD | Compound
2.04 | Cc1ccc2c(c1)c(C)c1c3ccccc3nc-1n2C

same assay, conditions: pH 9.0

logD | Compound
2.46 | Cc1c2c3ccccc3nc-2n(C)c2c(C)cccc12
2.58 | Cc1c2c3ccccc3nc-2n(C)c2ccccc12

Further lines, the molecule ahead of its results:

Compound | logD
c1ccc2nc3[nH]c4ccccc4c3cc2c1 | 2.44
Cn1c2nc3ccccc3c-2cc2ccccc21 | 3.04
Cc1c2ccccc2nc2[nH]c3ccccc3c12 | 2.69
Cc1ccc2nc3n(C)c4ccc(C)cc4c(C)c-3c2c1 | 2.42
Cc1ccc2nc3[nH]c4ccc(C)cc4c3c(C)c2c1 | 2.58
Cc1cccc2c(C)c3c(nc12)[nH]c1ccccc13 | 2.92
